According to patent US20040101484A1, “Nasal delivery of apomorphine in combination with glycol derivatives” (priority 1998, published 2004):

What was measured:
[1] = system: patients suffering from psychogenic erectile dysfunction; experiment: In-clinic efficacy and safety study of nasal apomorphine HCl, double blind double dummy placebo controlled cross over, self graded questionnaire; format: in vivo, human; conditions: nasal administration, containing propylene glycol
healthy male subjects = experiment: Adverse nasal effects after nasal administration of apomorphine HCl formulations to male subjects (Examples 1-6); format: in vivo, human
Method: A series of experiments were performed to illustrate features and advantages of the present invention. Several conditions were common to each experiment. […] Further, none of the subjects took any medication for two weeks prior to these experiments.
A different dosage of apomorphine was administered in each experiment to determine a preferred range of dosages having minimal adverse effects.

[2] = system: patients suffering from erectile dysfunction; conditions: intranasal delivery, 2.5 mg to 3.5 mg; cited from earlier work
[3] = 0.5 mg, without glycol derivatives, three subjects
[4] = 2.0 mg, without glycol derivatives, nine subjects

Compound: CN1CCc2cccc3c2[C@H]1Cc1ccc(O)c(O)c1-3 [apomorphine]
- Induction of an erection (overall conclusion) [1]: effective in inducing an erection
- Induction of an erection compared with nasal placebo or Viagra ([1]; listed as apomorphine HCI): more effective than a nasal placebo or Viagra in inducing an erection
- Induction of an erection compared with nasal placebo or Viagra ([1]; listed as apomorphine HCl): more effective than nasal placebo or Viagra in inducing an erection
- Adverse nasal effects (overall conclusion) (healthy male subjects; 0.5 mg, does not contain glycol derivatives): some adverse nasal effects
- Number of subjects who did not suffer any symptoms (healthy male subjects; [3]): One
- Number of subjects who suffered from mild nasal burning or pain (healthy male subjects; [3]): two
- Adverse nasal effects (overall conclusion) (healthy male subjects; 1.0 mg dose, does not contain glycol derivatives): some adverse nasal effects
- Adverse nasal effects (overall conclusion) (healthy male subjects; 1.0 mg, composition with propylene glycol (Table 5), six subjects): none of the subjects suffered from adverse nasal effects
- Adverse nasal effects (overall conclusion) (healthy male subjects; 2.0 mg, composition with propylene glycol (Table 6), six subjects): none of the subjects suffered from adverse nasal effects
- Adverse nasal effects (overall conclusion) (healthy male subjects; 2.0 mg, without glycol derivatives): some adverse nasal effects
- Number of subjects who suffered from mild nasal burning (healthy male subjects; [4]): One
- Number of subjects who suffered from mild to moderate nasal burning (healthy male subjects; [4]): one
- Number of subjects who suffered from mild unusual taste (healthy male subjects; [4]): four
- Adverse nasal effects (overall conclusion) (healthy male subjects; 4.0 mg, does not contain glycol derivatives): some adverse nasal effects
- Number of subjects who experienced moderate sneezing, somewhat troublesome (healthy male subjects; 4.0 mg, does not contain glycol derivatives, two subjects): One
- Eliciting an erection [2]: effective for eliciting an erection
- Side effects suffered by study participants [2]: extensive and serious side effects including hypotension, nausea, vomiting, impaired vision, diaphoresis and ashen coloring
